Holding throughout (assay type): cell-based
The subject of assay [1] is SNB-78 central nervous system cancer cells. Kind of assay: antitumor activity, sulforhodamine B cell growth assay, SNB-78. The following applies: Homo sapiens. On the procedure: (§1) The THIQ compound containing a macrocyclic structure of the present invention was administered to various cancer cell lines, and the antitumor activity (Go value) was observed. Specifically, verification was performed according to the literature (Yamori, T.; Matsunaga, A.; Sato, S.; Yamazaki, K.; Komi, A.; Ishizu, K. et al. Cancer Res. 1999, 59, 4042) by the following procedure.
(§2) Cells were plated at an appropriate density in a 96-well plate in RPMI 1640 together with 5% fetal bovine serum, and adhered overnight. The cells were exposed to a drug for 48 hours. Then, according to the sulforhodamine B assay described by Skehan et al (Skehan P., Storeng R., Scudiero D., Monks A., McMahon J., Vistica D., Warren J. T., Bokesch H., Kenney S., Boyd M. R. J Natl. Cancer Inst, 1990, 82, 1107-1112), the cell growth rate was measured. The absorbance of the control well (C) and the test well (T) was measured at 525 nm. In addition, the time at which the drug was added was set as time 0, and the absorbance for the test well (T0) was measured. Using these measured values, the cell growth inhibitory effect (% growth=PG) was calculated by the following formula at each concentration of the drug.
(§3) (T<T0): PG=100×[(T−T0)/T]
(§4) The PG values determined above for each cell line were plotted against the concentration (logarithm) on a semi-logarithmic graph, and summarized for each visceral cancer. Concentrations at which the dose-response curve of each cell line crossed the horizontal line of PG=50%, 0%, or −50% were calculated. These concentrations were defined as Log GI50, Log TGI, and Log LC50. Actually, using two data points of the drug concentration before and after crossing each horizontal line, the drug concentration (logarithmic value) at the intersection of the straight line connecting the two points and the horizontal line for each PG was calculated.

The test system of assay [2] is HCC2998 colorectal cancer cells. Kind of assay: antitumor activity, sulforhodamine B cell growth assay, HCC2998. The following applies: Homo sapiens, HCC 2998. On the procedure: as §1, §2, §3, §4
Assay [3] concerns MKN1 gastric cancer cells. Kind of assay: antitumor activity, sulforhodamine B cell growth assay, MKN1. The following applies: Homo sapiens, MKN-1. On the procedure:
as §1, §2, §3, §4

Assay [4] deals with NCI-H226 lung cancer cells. Briefly: antitumor activity, sulforhodamine B cell growth assay, NCI-H226. The following applies: Homo sapiens. On the procedure:
as §1, §2, §3, §4

In assay [5] the test system is OVCAR-5 cervical cancer cells. Briefly: antitumor activity, sulforhodamine B cell growth assay, OVCAR-5. Conditions: Homo sapiens. On the procedure: as §1, §2, §3, §4
For assay [6], the system named is SF-268 central nervous system cancer cells. Kind of assay: antitumor activity, sulforhodamine B cell growth assay, SF-268. Conditions: Homo sapiens. On the procedure:
as §1, §2, §3, §4

The test system of assay [7] is HCT-15 colorectal cancer cells. Kind of assay: antitumor activity, sulforhodamine B cell growth assay, HCT-15. The following applies: Homo sapiens. On the procedure: as §1, §2, §3, §4
Assay [8] deals with OVCAR-4 cancer cells. Briefly: antitumor activity, sulforhodamine B cell growth assay, OVCAR-4. The following applies: Homo sapiens. On the procedure:
as §1, §2, §3, §4

The test system of assay [9] is MKN-A gastric cancer cells. Briefly: antitumor activity, sulforhodamine B cell growth assay, MKN-A. On the procedure: as §1, §2, §3, §4
Assay [10] has as its system HBC-4 breast cancer cells. Briefly: antitumor activity, sulforhodamine B cell growth assay, HBC-4. The following applies: HBC4. On the procedure:
as §1, §2, §3, §4

Assay [11] deals with HBC-5 breast cancer cells. Kind of assay: antitumor activity, sulforhodamine B cell growth assay, HBC-5. Conditions: HBC5. On the procedure:
as §1, §2, §3, §4

For assay [12], the system named is OVCAR-3 cancer cells. Briefly: antitumor activity, sulforhodamine B cell growth assay, OVCAR-3. The following applies: Homo sapiens. On the procedure:
as §1, §2, §3, §4

Assay [13] has as its system SK-OV-3 cancer cells. Briefly: antitumor activity, sulforhodamine B cell growth assay, SK-OV-3. Conditions: Homo sapiens. On the procedure:
as §1, §2, §3, §4

In assay [14] the test system is MKN45 gastric cancer cells. Briefly: antitumor activity, sulforhodamine B cell growth assay, MKN45. The following applies: Homo sapiens, MKN-45. On the procedure: as §1, §2, §3, §4
In assay [15] the test system is MDA-MB-231 breast cancer cells. Briefly: antitumor activity, sulforhodamine B cell growth assay, MDA-MB-231. Conditions: Homo sapiens. On the procedure: as §1, §2, §3, §4
The test system of assay [16] is SF-539 central nervous system cancer cells. Briefly: antitumor activity, sulforhodamine B cell growth assay, SF-539. The following applies: Homo sapiens. On the procedure: as §1, §2, §3, §4
Assay [17] deals with MKN-B gastric cancer cells. Briefly: antitumor activity, sulforhodamine B cell growth assay, MKN-B. On the procedure: as §1, §2, §3, §4
Assay [18] relates to ACHN kidney cancer cells. Kind of assay: antitumor activity, sulforhodamine B cell growth assay, ACHN. The following applies: Homo sapiens. On the procedure:
as §1, §2, §3, §4

Assay [19] has as its system NCI-H522 lung cancer cells. Briefly: antitumor activity, sulforhodamine B cell growth assay, NCI-H522. The following applies: Homo sapiens. On the procedure: as §1, §2, §3, §4
Assay [20] deals with SF-295 central nervous system cancer cells. Kind of assay: antitumor activity, sulforhodamine B cell growth assay, SF-295. The following applies: Homo sapiens. On the procedure: as §1, §2, §3, §4
Assay [21] concerns NCI-H23 lung cancer cells. Kind of assay: antitumor activity, sulforhodamine B cell growth assay, NCI-H23. The following applies: Homo sapiens. On the procedure:
as §1, §2, §3, §4

[22] abbreviates: SNB-78, drug exposure 48 hours, read-out: GI50 value: 50% growth inhibitory concentration.
The mark [23] stands for this setting: HCC2998, drug exposure 48 hours, read-out: GI50 value: 50% growth inhibitory concentration.
Setting [24] is: MKN1, drug exposure 48 hours, read-out: GI50 value: 50% growth inhibitory concentration.
Setting [25] is: NCI-H226, drug exposure 48 hours, read-out: GI50 value: 50% growth inhibitory concentration.
Where [26] appears, read: OVCAR-5, drug exposure 48 hours, read-out: GI50 value: 50% growth inhibitory concentration.
Setting [27] is: SF-268, drug exposure 48 hours, read-out: GI50 value: 50% growth inhibitory concentration.
The mark [28] stands for this setting: HCT-15, drug exposure 48 hours, read-out: GI50 value: 50% growth inhibitory concentration.
The mark [29] stands for this setting: OVCAR-4, drug exposure 48 hours, read-out: GI50 value: 50% growth inhibitory concentration.
Setting [30] is: MKN-A, drug exposure 48 hours, read-out: GI50 value: 50% growth inhibitory concentration.
Where [31] appears, read: HBC-4, drug exposure 48 hours, read-out: GI50 value: 50% growth inhibitory concentration.
The mark [32] stands for this setting: HBC-5, drug exposure 48 hours, read-out: GI50 value: 50% growth inhibitory concentration.
The mark [33] stands for this setting: OVCAR-3, drug exposure 48 hours, read-out: GI50 value: 50% growth inhibitory concentration.
Setting [34] is: SK-OV-3, drug exposure 48 hours, read-out: GI50 value: 50% growth inhibitory concentration.
Where [35] appears, read: MKN45, drug exposure 48 hours, read-out: GI50 value: 50% growth inhibitory concentration.
Where [36] appears, read: MDA-MB-231, drug exposure 48 hours, read-out: GI50 value: 50% growth inhibitory concentration.
[37] abbreviates: SF-539, drug exposure 48 hours, read-out: GI50 value: 50% growth inhibitory concentration.
[38] abbreviates: MKN-B, drug exposure 48 hours, read-out: GI50 value: 50% growth inhibitory concentration.
[39] abbreviates: ACHN, drug exposure 48 hours, read-out: GI50 value: 50% growth inhibitory concentration.
[40] abbreviates: NCI-H522, drug exposure 48 hours, read-out: GI50 value: 50% growth inhibitory concentration.
Where [41] appears, read: SF-295, drug exposure 48 hours, read-out: GI50 value: 50% growth inhibitory concentration.
[42] abbreviates: NCI-H23, drug exposure 48 hours, read-out: GI50 value: 50% growth inhibitory concentration.

Structures are written as SMILES. Read-outs that look alike come from different tables or passages of the source.

The values below come from US20240197726A1, “NOVEL TETRAHYDROISOQUINOLINE ALKALOID COMPOUND CONTAINING MACROCYCLE” (THE UNIVERSITY OF TOKYO, priority 2021, published 2024).

Regarding `C#CCN1C/C=C/C(=C)COc2c(C)c3c(c4c2C[C@H]2[C@H]5c6c(cc(C)c(OC)c6O)C[C@@H]([C@H](C#N)N2C4CNC(=O)[C@@H]1C)N5C)OCO3` [Compound 35], the GI50 worked out at 3.4 nM in assay [1] (setting [22]); 3.6 nM in assay [2] (setting [23]); 2.7 nM in assay [3] (setting [24]); 2.7 nM in assay [4] (setting [25]); 3.3 nM in assay [5] (setting [26]); 3.3 nM in assay [6] (setting [27]). Besides, the GI50 came out at 4.5 nM in assay [7] (setting [28]); 3.6 nM in assay [8] (setting [29]); 3.7 nM in [9] (setting [30]); 2.2 nM in [10] (setting [31]); 2.7 nM in assay [11] (setting [32]); 3.2 nM in assay [12] (setting [33]). Moreover, the GI50 worked out at 6.5 nM in assay [13] (setting [34]); 2.7 nM in [14] (setting [35]); 2.7 nM in assay [15] (setting [36]); 2.2 nM in assay [16] (setting [37]); 3.5 nM in assay [17] (setting [38]); 3.1 nM in assay [18] (setting [39]). For the same compound, the GI50 in assay [19] (setting [40]) was determined as 1.1 nM; in assay [20] (setting [41]), 3.8 nM; in assay [21] (setting [42]), 3.5 nM.
On to `CC1=C(C)C(=O)C2=C(CC3(C)[C@H]4c5c(cc(C)c(C)c5C)C[C@@](C)(C(C)N3[C@H]2CNC(=O)C(C)C)N4C)C1=O` (stereo partly drawn) [drawing 160], for which the GI50 in assay [1] (SNB-78 central nervous system cancer cells, read-out: antitumor activity GI50 value: 50% growth inhibitory concentration) stood at 63 nM; in assay [2] (HCC2998 colorectal cancer cells, read-out: antitumor activity GI50 value: 50% growth inhibitory concentration), 350 nM; in assay [3] (MKN1 gastric cancer cells, read-out: antitumor activity GI50 value: 50% growth inhibitory concentration), 52 nM; in [4] (NCI-H226, NCl-H226 lung cancer cells, read-out: antitumor activity GI50 value: 50% growth inhibitory concentration), 310 nM; in [5] (OVCAR-5 cervical cancer cells, read-out: antitumor activity GI50 value: 50% growth inhibitory concentration) it was 390 nM; in assay [6] (SF-268 central nervous system cancer cells, read-out: antitumor activity GI50 value: 50% growth inhibitory concentration), 370 nM. For the same compound, the GI50 in [7] (HCT-15 colorectal cancer cells, read-out: antitumor activity GI50 value: 50% growth inhibitory concentration) turned out to be 390 nM; in [8] (OVCAR-4 cervical cancer cells, read-out: antitumor activity GI50 value: 50% growth inhibitory concentration) it was 290 nM; in assay [9] (MKN-A gastric cancer cells, read-out: antitumor activity GI50 value: 50% growth inhibitory concentration), 250 nM; in assay [10] (HBC-4 breast cancer cells, read-out: antitumor activity GI50 value: 50% growth inhibitory concentration), 59 nM; in assay [11] (HBC-5 breast cancer cells, read-out: antitumor activity GI50 value: 50% growth inhibitory concentration) it was 62 nM; in [12] (OVCAR-3 cervical cancer cells, read-out: antitumor activity GI50 value: 50% growth inhibitory concentration), 130 nM. The GI50 in assay [13] (SK-OV-3 cervical cancer cells, read-out: antitumor activity GI50 value: 50% growth inhibitory concentration) is 540 nM; in assay [14] (MKN45 gastric cancer cells, read-out: antitumor activity GI50 value: 50% growth inhibitory concentration), 300 nM; in [15] (MDA-MB-231 breast cancer cells, read-out: antitumor activity GI50 value: 50% growth inhibitory concentration) it was 130 nM; in [16] (SF-539 central nervous system cancer cells, read-out: antitumor activity GI50 value: 50% growth inhibitory concentration) it was 180 nM; in assay [17] (MKN-B gastric cancer cells, read-out: antitumor activity GI50 value: 50% growth inhibitory concentration), 170 nM; in [18] (ACHN kidney cancer cells, read-out: antitumor activity GI50 value: 50% growth inhibitory concentration) it was 320 nM. Also, the GI50 in [19] (NCI-H522, NCl-H522 lung cancer cells, read-out: antitumor activity GI50 value: 50% growth inhibitory concentration) was 43 nM; in assay [20] (SF-295 central nervous system cancer cells, read-out: antitumor activity GI50 value: 50% growth inhibitory concentration), 500 nM; in [21] (NCI-H23, NCl-H23 lung cancer cells, read-out: antitumor activity GI50 value: 50% growth inhibitory concentration) it was 290 nM.
As to `COc1c(C)cc2c(c1O)[C@@H]1[C@@H]3Cc4c5c(C)c6c(c4C(CNC(=O)[C@H](C)N(C)CC#CCO5)N3[C@@H](C#N)[C@H](C2)N1C)OCO6` [Compound 29], the GI50 amounted to 3.1 nM in assay [1] (setting [22]); 2.8 nM in [2] (setting [23]); 2.3 nM in [3] (setting [24]); 2.5 nM in [4] (setting [25]); 3.2 nM in [5] (setting [26]); 2.8 nM in [6] (setting [27]). The GI50 in assay [7] (setting [28]) came to 3.9 nM; in assay [8] (setting [29]), 3.5 nM; in assay [9] (setting [30]), 3.5 nM; in assay [10] (setting [31]), 1.5 nM; in assay [11] (setting [32]) it was 1.8 nM; in [12] (setting [33]), 2.6 nM. The GI50 in assay [13] (setting [34]) was found to be 5.7 nM; in assay [14] (setting [35]), 1.3 nM; in assay [15] (setting [36]), 2.3 nM; in assay [16] (setting [37]), 1.3 nM; in [17] (setting [38]) it was 3 nM; in [18] (setting [39]) it was 2.2 nM. Further, the GI50 in assay [19] (setting [40]) was 0.6 nM; in assay [20] (setting [41]) it was 3.4 nM; in assay [21] (setting [42]), 2.6 nM.
